Experiments:
[1] = target: Activin receptor type-1 (Homo sapiens) (UniProt Q04771); conditions: Compound concentration 1000.0 nM
[2] = target: Aurora kinase A (Homo sapiens) (UniProt O14965); conditions: Compound concentration 1000.0 nM
[3] = target: Mitotic checkpoint serine/threonine-protein kinase BUB1 (Homo sapiens) (UniProt O43683); conditions: Compound concentration 1000.0 nM
[4] = target: Cyclin-dependent kinase 5 (Homo sapiens) (UniProt Q00535); conditions: Compound concentration 1000.0 nM
[5] = target: Cyclin-dependent kinase 8 (Homo sapiens) (UniProt P49336); conditions: Compound concentration 1000.0 nM
[6] = target: Serine/threonine-protein kinase Chk1 (Homo sapiens) (UniProt O14757); conditions: Compound concentration 1000.0 nM
[7] = target: Dual specificity protein kinase CLK2 (Homo sapiens) (UniProt P49760); conditions: Compound concentration 1000.0 nM
[8] = target: Death-associated protein kinase 2 (Homo sapiens) (UniProt Q9UIK4); conditions: Compound concentration 1000.0 nM
[9] = target: Dual specificity tyrosine-phosphorylation-regulated kinase 2 (Homo sapiens) (UniProt Q92630); conditions: Compound concentration 1000.0 nM
[10] = system: Epidermal growth factor receptor (Homo sapiens), P00533 [UNDEFINED MUTATION]; conditions: Compound concentration 1000.0 nM
[11] = system: Epidermal growth factor receptor (Homo sapiens), P00533 [UNDEFINED MUTATION]; conditions: Compound concentration 1000.0 nM; remark: listed apart in the source
[12] = target: Ephrin type-B receptor 6 (Homo sapiens) (UniProt O15197); conditions: Compound concentration 1000.0 nM
[13] = target: Focal adhesion kinase 1 (Homo sapiens) (UniProt Q05397); conditions: Compound concentration 1000.0 nM
[14] = target: Tyrosine-protein kinase Fes/Fps (Homo sapiens) (UniProt P07332); conditions: Compound concentration 1000.0 nM
[15] = system: Receptor-type tyrosine-protein kinase FLT3 (Homo sapiens), P36888 [UNDEFINED MUTATION]; conditions: Compound concentration 1000.0 nM
[16] = system: Receptor-type tyrosine-protein kinase FLT3 (Homo sapiens), P36888 [UNDEFINED MUTATION]; conditions: Compound concentration 1000.0 nM; remark: listed apart in the source
[17] = system: Receptor-type tyrosine-protein kinase FLT3 (Homo sapiens), P36888 [N841I]; conditions: Compound concentration 1000.0 nM
[18] = target: Hormonally up-regulated neu tumor-associated kinase (Homo sapiens) (UniProt P57058); conditions: Compound concentration 1000.0 nM
[19] = target: Insulin receptor-related protein (Homo sapiens) (UniProt P14616); conditions: Compound concentration 1000.0 nM
[20] = target: Interleukin-1 receptor-associated kinase 1 (Homo sapiens) (UniProt P51617); conditions: Compound concentration 1000.0 nM
[21] = system: Mast/stem cell growth factor receptor Kit (Homo sapiens), P10721 [A829P]; conditions: Compound concentration 1000.0 nM
[22] = target: MAP/microtubule affinity-regulating kinase 3 (Homo sapiens) (UniProt P27448); conditions: Compound concentration 1000.0 nM
[23] = target: Microtubule-associated serine/threonine-protein kinase 1 (Homo sapiens) (UniProt Q9Y2H9); conditions: Compound concentration 1000.0 nM
[24] = target: Dual specificity mitogen-activated protein kinase kinase 1 (Homo sapiens) (UniProt Q02750); conditions: Compound concentration 1000.0 nM
[25] = target: Mitogen-activated protein kinase kinase kinase 14 (Homo sapiens) (UniProt Q99558); conditions: Compound concentration 1000.0 nM
[26] = target: Mitogen-activated protein kinase 11 (Homo sapiens) (UniProt Q15759); conditions: Compound concentration 1000.0 nM
[27] = target: Platelet-derived growth factor receptor alpha (Homo sapiens) (UniProt P16234); conditions: Compound concentration 1000.0 nM
[28] = target: 3-phosphoinositide-dependent protein kinase 1 (Homo sapiens) (UniProt O15530); conditions: Compound concentration 1000.0 nM
[29] = target: Phosphatidylinositol 4-kinase beta (Homo sapiens) (UniProt Q9UBF8); conditions: Compound concentration 1000.0 nM
[30] = target: Serine/threonine-protein kinase pim-2 (Homo sapiens) (UniProt Q9P1W9); conditions: Compound concentration 1000.0 nM
[31] = target: Serine/threonine-protein kinase D2 (Homo sapiens) (UniProt Q9BZL6); conditions: Compound concentration 1000.0 nM
[32] = target: Serine/threonine-protein kinase SIK3 (Homo sapiens) (UniProt Q9Y2K2); conditions: Compound concentration 1000.0 nM
[33] = target: Receptor-interacting serine/threonine-protein kinase 2 (Homo sapiens) (UniProt O43353); conditions: Compound concentration 1000.0 nM
[34] = target: Ribosomal protein S6 kinase alpha-1 (Homo sapiens) (UniProt Q15418); conditions: Compound concentration 1000.0 nM
[35] = target: SRSF protein kinase 1 (Homo sapiens) (UniProt Q96SB4); conditions: Compound concentration 1000.0 nM
[36] = target: SRSF protein kinase 3 (Homo sapiens) (UniProt Q9UPE1); conditions: Compound concentration 1000.0 nM
[37] = target: Serine/threonine-protein kinase 35 (Homo sapiens) (UniProt Q8TDR2); conditions: Compound concentration 1000.0 nM
[38] = target: Tyrosine-protein kinase SYK (Homo sapiens) (UniProt P43405); conditions: Compound concentration 1000.0 nM
[39] = target: TGF-beta receptor type-1 (Homo sapiens) (UniProt P36897); conditions: Compound concentration 1000.0 nM
[40] = target: Serine/threonine-protein kinase ULK1 (Homo sapiens) (UniProt O75385); conditions: Compound concentration 1000.0 nM
[41] = target: Serine/threonine-protein kinase WNK1 (Homo sapiens) (UniProt Q9H4A3); conditions: Compound concentration 1000.0 nM
[42] = target: Tyrosine-protein kinase Yes (Homo sapiens) (UniProt P07947); conditions: Compound concentration 1000.0 nM
[43] = target: Beta-1 adrenergic receptor (Homo sapiens) (UniProt P08588); conditions: Compound concentration 10.0 uM
[44] = target: Muscarinic acetylcholine receptor M5 (Homo sapiens) (UniProt P08912); conditions: Compound concentration 10.0 uM
[45] = species: Rattus norvegicus; conditions: Compound concentration 10.0 uM

Sequence of Epidermal growth factor receptor (Homo sapiens), P00533 [UNDEFINED MUTATION] (P00533 whole entry, looked up, change not shown): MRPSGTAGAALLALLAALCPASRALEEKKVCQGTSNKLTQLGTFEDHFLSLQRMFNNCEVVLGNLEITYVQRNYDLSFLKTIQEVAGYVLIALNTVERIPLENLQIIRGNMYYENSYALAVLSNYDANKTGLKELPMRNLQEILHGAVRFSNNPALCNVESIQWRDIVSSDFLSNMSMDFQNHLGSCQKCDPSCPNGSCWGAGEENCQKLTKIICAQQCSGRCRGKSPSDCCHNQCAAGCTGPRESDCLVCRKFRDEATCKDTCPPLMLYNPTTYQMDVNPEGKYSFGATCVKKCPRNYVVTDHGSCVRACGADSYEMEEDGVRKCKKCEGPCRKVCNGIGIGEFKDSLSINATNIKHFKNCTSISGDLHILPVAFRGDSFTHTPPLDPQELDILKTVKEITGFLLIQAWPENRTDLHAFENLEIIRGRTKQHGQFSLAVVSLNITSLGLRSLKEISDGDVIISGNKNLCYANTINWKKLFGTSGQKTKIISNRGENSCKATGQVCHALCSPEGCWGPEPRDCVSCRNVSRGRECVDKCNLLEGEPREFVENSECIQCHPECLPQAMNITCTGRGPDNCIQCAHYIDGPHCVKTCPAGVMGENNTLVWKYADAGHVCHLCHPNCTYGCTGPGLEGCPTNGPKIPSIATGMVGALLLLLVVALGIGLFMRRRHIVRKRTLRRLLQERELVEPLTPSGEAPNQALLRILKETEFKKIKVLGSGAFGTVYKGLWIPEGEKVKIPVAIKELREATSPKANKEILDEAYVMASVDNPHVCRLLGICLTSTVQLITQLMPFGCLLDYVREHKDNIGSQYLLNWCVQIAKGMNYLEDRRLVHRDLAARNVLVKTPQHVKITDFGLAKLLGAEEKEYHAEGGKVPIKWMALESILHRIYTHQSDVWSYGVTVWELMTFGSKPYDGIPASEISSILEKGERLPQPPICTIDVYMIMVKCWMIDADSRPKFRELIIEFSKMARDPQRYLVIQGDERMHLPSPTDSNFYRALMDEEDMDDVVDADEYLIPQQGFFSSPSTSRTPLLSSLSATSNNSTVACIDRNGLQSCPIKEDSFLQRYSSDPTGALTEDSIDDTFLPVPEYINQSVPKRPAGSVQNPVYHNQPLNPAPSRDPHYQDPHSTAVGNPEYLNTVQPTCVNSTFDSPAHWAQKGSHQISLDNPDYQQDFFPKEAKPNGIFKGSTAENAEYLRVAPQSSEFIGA
Sequence of SRSF protein kinase 1 (Homo sapiens) (Q96SB4 whole entry): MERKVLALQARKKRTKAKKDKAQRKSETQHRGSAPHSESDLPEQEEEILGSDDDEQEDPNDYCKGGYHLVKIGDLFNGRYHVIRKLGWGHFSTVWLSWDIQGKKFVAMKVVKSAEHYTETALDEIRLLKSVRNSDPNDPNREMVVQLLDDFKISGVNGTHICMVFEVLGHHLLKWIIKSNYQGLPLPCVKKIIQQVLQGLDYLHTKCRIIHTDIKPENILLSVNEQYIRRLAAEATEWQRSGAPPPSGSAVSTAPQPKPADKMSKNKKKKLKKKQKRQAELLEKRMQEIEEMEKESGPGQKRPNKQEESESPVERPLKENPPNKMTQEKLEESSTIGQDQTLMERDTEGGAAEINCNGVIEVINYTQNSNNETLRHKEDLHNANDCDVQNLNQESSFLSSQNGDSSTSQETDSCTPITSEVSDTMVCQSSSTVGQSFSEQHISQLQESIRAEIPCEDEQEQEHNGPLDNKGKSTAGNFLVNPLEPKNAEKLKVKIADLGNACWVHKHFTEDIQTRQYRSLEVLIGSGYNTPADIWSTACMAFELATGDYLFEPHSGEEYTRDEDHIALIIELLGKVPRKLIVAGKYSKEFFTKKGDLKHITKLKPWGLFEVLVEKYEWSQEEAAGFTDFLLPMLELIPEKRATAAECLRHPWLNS
Sequence of 3-phosphoinositide-dependent protein kinase 1 (Homo sapiens) (O15530 whole entry): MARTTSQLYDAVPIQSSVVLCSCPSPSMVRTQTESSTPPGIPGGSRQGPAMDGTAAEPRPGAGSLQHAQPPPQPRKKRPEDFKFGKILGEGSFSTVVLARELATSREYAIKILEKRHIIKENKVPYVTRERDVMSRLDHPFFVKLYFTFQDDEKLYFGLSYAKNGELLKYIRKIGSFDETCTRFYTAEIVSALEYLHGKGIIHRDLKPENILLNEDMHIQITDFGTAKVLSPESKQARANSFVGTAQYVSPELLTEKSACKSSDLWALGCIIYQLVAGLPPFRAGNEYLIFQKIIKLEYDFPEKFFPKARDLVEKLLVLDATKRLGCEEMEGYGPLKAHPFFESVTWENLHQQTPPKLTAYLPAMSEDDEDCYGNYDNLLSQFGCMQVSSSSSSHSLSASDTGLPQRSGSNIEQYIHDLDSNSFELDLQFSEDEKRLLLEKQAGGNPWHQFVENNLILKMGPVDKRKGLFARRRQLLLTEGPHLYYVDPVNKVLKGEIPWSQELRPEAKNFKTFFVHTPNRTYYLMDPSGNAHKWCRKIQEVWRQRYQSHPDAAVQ
Sequence of Microtubule-associated serine/threonine-protein kinase 1 (Homo sapiens) (Q9Y2H9 whole entry, looked up): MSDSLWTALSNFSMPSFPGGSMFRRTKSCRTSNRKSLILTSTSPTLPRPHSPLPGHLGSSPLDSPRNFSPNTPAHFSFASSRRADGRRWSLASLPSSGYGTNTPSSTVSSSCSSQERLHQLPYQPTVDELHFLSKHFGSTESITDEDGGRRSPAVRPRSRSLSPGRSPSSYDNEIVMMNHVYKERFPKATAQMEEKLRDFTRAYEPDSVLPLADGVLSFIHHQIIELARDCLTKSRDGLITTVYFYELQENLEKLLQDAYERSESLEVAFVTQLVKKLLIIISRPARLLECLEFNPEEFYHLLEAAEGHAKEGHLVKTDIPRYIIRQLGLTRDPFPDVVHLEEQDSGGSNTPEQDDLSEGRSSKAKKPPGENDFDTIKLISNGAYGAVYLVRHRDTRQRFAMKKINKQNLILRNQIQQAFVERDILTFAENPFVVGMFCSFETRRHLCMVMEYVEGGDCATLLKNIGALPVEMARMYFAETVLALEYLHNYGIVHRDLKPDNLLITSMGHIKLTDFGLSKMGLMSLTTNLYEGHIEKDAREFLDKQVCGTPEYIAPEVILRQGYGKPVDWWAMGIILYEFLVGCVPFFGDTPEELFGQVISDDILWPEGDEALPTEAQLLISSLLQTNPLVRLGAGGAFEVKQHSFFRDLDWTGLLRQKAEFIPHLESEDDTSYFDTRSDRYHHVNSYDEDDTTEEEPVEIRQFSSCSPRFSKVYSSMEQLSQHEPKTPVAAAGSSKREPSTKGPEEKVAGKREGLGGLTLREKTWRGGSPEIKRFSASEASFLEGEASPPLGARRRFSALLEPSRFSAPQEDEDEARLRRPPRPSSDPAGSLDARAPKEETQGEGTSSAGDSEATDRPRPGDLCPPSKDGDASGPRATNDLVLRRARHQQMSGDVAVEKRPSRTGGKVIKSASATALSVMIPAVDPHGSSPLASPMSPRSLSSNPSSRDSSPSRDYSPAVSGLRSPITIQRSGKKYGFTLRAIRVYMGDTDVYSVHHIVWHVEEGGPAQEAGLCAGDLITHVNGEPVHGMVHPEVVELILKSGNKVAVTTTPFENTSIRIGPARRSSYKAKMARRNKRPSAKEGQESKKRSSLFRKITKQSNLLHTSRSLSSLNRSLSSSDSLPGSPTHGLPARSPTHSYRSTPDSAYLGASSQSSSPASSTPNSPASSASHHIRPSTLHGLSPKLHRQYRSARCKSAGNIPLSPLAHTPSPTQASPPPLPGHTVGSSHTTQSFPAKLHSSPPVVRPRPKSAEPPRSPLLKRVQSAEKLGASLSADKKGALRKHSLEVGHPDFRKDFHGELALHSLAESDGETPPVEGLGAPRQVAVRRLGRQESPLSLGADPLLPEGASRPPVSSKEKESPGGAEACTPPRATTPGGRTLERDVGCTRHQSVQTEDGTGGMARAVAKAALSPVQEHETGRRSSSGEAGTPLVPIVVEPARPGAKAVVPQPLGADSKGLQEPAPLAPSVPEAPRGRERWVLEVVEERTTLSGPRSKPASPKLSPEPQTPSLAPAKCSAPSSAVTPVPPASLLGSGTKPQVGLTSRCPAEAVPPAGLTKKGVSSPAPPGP
Sequence of Phosphatidylinositol 4-kinase beta (Homo sapiens) (Q9UBF8 2-816 limits assumed): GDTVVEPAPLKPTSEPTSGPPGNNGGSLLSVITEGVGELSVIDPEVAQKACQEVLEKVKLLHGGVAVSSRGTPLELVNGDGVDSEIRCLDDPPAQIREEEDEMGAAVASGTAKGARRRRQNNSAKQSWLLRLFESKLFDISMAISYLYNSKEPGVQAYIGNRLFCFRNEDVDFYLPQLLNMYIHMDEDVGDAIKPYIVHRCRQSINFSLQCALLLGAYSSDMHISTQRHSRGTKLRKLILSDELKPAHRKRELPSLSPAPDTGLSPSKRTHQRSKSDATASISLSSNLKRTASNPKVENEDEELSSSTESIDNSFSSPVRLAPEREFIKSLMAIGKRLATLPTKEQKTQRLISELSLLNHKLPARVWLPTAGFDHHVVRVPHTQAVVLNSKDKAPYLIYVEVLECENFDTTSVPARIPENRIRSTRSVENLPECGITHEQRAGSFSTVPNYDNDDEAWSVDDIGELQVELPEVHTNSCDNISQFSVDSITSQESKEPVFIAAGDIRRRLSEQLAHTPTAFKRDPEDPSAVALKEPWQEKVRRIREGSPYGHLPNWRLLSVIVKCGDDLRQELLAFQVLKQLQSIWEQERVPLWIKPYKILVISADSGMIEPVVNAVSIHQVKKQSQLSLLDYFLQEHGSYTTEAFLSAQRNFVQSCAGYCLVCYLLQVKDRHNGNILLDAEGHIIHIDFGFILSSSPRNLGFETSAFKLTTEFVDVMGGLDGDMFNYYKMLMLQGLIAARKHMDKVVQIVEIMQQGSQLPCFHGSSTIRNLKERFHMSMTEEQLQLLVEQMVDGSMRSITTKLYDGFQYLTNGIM
Sequence of Cyclin-dependent kinase 5 (Homo sapiens) (Q00535 whole entry, looked up): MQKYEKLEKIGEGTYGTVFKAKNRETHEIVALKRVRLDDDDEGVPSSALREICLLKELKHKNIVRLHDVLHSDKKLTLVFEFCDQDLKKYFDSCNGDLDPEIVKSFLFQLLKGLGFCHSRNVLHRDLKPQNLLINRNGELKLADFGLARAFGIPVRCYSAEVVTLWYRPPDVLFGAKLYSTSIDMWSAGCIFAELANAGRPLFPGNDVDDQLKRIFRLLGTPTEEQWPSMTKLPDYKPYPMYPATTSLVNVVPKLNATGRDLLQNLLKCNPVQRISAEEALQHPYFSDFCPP

COc1cccc(CNC(=O)c2nc3scc(COCc4ccc(C(=O)O)cc4)c3c(=O)[nH]2)c1 [T-26c]
inactive: residual activity [1] 94.3% | residual activity [2] 80.9% | residual activity [3] 70.2% | residual activity [4] 95.7% | residual activity [5] 73.4% | residual activity [6] 95.5% | residual activity [7] 92.4% | residual activity [8] 83.1% | residual activity [9] 100% | residual activity [10] 80.4% | residual activity [11] 98.7% | residual activity [12] 100% | residual activity [13] 100% | residual activity [14] 94.5% | residual activity [15] 93.7% | residual activity [16] 58.4% | residual activity [17] 100% | residual activity [18] 100% | residual activity [19] 100% | residual activity [20] 75.6% | residual activity [21] 69.2% | residual activity [22] 100% | residual activity [23] 84.4% | residual activity [24] 73.5% | residual activity [25] 100% | residual activity [26] 100% | residual activity [27] 56.3% | residual activity [28] 87.8% | residual activity [29] 59.9% | residual activity [30] 100% | residual activity [31] 100% | residual activity [32] 63.5% | residual activity [33] 100% | residual activity [34] 100% | residual activity [35] 100% | residual activity [36] 70.1% | residual activity [37] 93.6% | residual activity [38] 100% | residual activity [39] 83.2% | residual activity [40] 74% | residual activity [41] 76.7% | residual activity [42] 85.2% | inhibition [43] 29.9% | inhibition [44] -7.42% | inhibition [45] 3.29%

Reference: ChEMBL document CHEMBL4507300 (2021)
